In general, ED50 refers to the dose at which the effect has come halfway, by size or by number of responders. Usually EC50 stands for the concentration at which the effect is half-maximal. High values mean a less potent agent, low ones a more potent agent.

In experiment [1] the test system is neuronal uptake of 5-hydroxytryptamine. Description: Inhibition of the uptake of ^14 C-5-HT in vivo (i.p. administration, hypothalamus slices). Further details: species or system mouse. The settings on record: for ED50: Mus musculus, ip, 0.5 h, read-out: Uptake of ^14 C-5-HT in vivo ED50; for Percentage inhibition of ^14 C-5-HT uptake at the highest dose examined: in vivo, at the highest dose examined (the > value, μmole/kg). The protocol:
(§1) The test substances were administered intraperitoneally half an hour before the animals were killed. […] The incubation time was 5 minutes with 5 minutes of preincubation before the labelled amines were added. The slices were dissolved in Soluene® and the amounts of radioactive amines taken up were determined by liquid scintillation. […] Active uptake is defined as that part of the radioactive uptake which is inhibited by a high concentration of cocaine.

Experiment [2] deals with neuronal uptake of noradrenaline. Description: Inhibition of the uptake of ^3 H-NA in vivo (i.p. administration, hypothalamus slices). Further details: species or system mouse. Conditions: for ED50: Mus musculus, ip, 0.5 h, read-out: Uptake of ^3 H-NA in vivo ED50; for Percentage inhibition of ^3 H-NA uptake at the highest dose examined: in vivo, at the highest dose examined (the > value, μmole/kg). As to the method:
as §1

The subject of experiment [3] is neuronal uptake of 5-hydroxytryptamine. The experiment in a line: Inhibition of the uptake of ^14 C-5-HT in vitro (slices of mouse midbrain). In kind it is biochemical. Conditions: for EC50: in vitro, mouse brain slices, 1×10^-7 M ^14 C-5-HT, 5 min. As to the method:
as §1
(§2) In the in vitro method slices of mouse midbrain were preincubated for 5 minutes with solution of the compound to be tested and then incubated as described above.

For experiment [4], the system named is neuronal uptake of noradrenaline. Description: Inhibition of the uptake of ^3 H-NA in vitro (slices of mouse midbrain). It is filed as biochemical. The settings on record: for EC50: mouse brain slices, 1×10^-7 M ^3 H-NA, 5 min. As to the method:
as §1, §2

[5] abbreviates: i.p., half an hour before the animals were killed, 50 percent decrease of active uptake.

Where a name gives a salt, the structure may show the parent alone. Read-outs that look alike come from different tables or passages of the source.

Take `CNC/C=C(\c1ccc(Br)cc1)c1cccnc1` [4-Br H E, reference compound]: the results for the ED50 in experiment [1] (setting [5]) and in experiment [2] (setting [5]) were 102 µmol/kg and 25 µmol/kg, respectively.
Regarding `CNC/C=C(/c1ccc(Cl)cc1)c1cccnc1.O=C(O)C(=O)O` [Example 3, (Z)-3-(4-Chlorophenyl)-N-methyl-3-(3-pyridyl)allylamine oxalate], the ED50 came to 19 µmol/kg in experiment [1] (setting [5]) and 23 µmol/kg in experiment [2] (setting [5]).
In the case of `CNC/C=C(\c1cccnc1)c1ccc(Cl)cc1Cl` [Example 10, (E)-3-(2,4-Dichlorophenyl)-N-methyl-3-(3-pyridyl)allylamine oxalate], the EC50 in experiment [3] was 500 nM; in experiment [4] it was 2300 nM. Also, the ED50 in experiment [1] (setting [5]) was determined as 18 µmol/kg; in experiment [2] (setting [5]), 73 µmol/kg.
The like results for `CNCC=C(c1cccnc1)c1ccc(Cl)cc1Cl` [2,4-di Cl H E/Z 1:1, 3-(2,4-dichlorophenyl)-N-methyl-3-(3-pyridyl)-allylamine] were, in that order, 500 nM, 900 nM, 60 µmol/kg and 82 µmol/kg.
Consider `CN(C)C/C=C(\c1cccnc1)c1cccc(Br)c1` [Example 12, 3-(3-Bromophenyl)-N,N-dimethyl-3-(3-pyridyl)allylamine oxalate], for which the ED50 in experiment [1] (setting [5]) is greater than 98 µmol/kg; in experiment [2] (setting [5]), 66 µmol/kg.
For `CN(C)C/C=C(/c1ccc(Cl)cc1)c1cccnc1` [Example 2, (Z)-3-(4-chlorophenyl)-N,N-dimethyl-3-(3-pyridyl)allylamine oxalate], the 50% effective concentration (EC50) in experiment [3] and in experiment [4] was 1100 nM in each case. Further, the ED50 in experiment [1] (setting [5]) is 34 µmol/kg; in experiment [2] (setting [5]) it was 46 µmol/kg.
Take `CN(C)CC=C(c1cccnc1)c1ccc(Cl)cc1Cl` [2,4-di Cl CH3 E/Z 1:1, 3-(2,4-dichlorophenyl)-N,N-dimethyl-3-(3-pyridyl)-allylamine]: the ED50 in experiment [1] (setting [5]) was found to be 42 µmol/kg; in experiment [2], 63 µmol/kg.
In the case of `CN(C)C/C=C(/c1ccc(Br)cc1)c1cccnc1` [4-Br CH3 Z, (Z)-3-(4-bromophenyl)-N,N-dimethyl-3-(3-pyridyl)allylamine, reference compound], the ED50 in experiment [1] (setting [5]) was 49 µmol/kg; in experiment [2] (setting [5]), greater than 98 µmol/kg. In experiment [2] (i.p.), the “Percentage inhibition of ^3 H-NA uptake at the highest dose examined” value is 26%.
For the molecule `CNC/C=C(\c1cccnc1)c1ccccc1Br` [Example 7, (E)-3-(2-Bromophenyl)-N-methyl-3-(3-pyridyl)allylamine oxalate], the values for the EC50 in experiment [3] and in experiment [4] were 600 nM and 300 nM, respectively. The ED50 worked out at 102 µmol/kg in experiment [1] (setting [5]) and 20 µmol/kg in experiment [2] (setting [5]).
Turning to `CN(C)C/C=C(\c1ccc(Br)cc1)c1cccnc1` [4-Br CH3 E, reference compound], the ED50 is greater than 98 µmol/kg in experiment [1] (setting [5]) and 25 µmol/kg in experiment [2] (setting [5]). Besides, the “Percentage inhibition of ^14 C-5-HT uptake at the highest dose examined” value in experiment [1] (i.p.) is 36%.
For `CNCC=C(c1cccnc1)c1ccccc1Br` [2-Br H E/Z 1:1, 3-(2-bromophenyl)-N-methyl-3-(3-pyridyl)-allylamine], the EC50 is 1500 nM in experiment [3] and 1400 nM in experiment [4]. The ED50 in experiment [1] (setting [5]) was greater than 132 µmol/kg; in experiment [2] it was 63 µmol/kg.
Regarding `CN(C)C/C=C(\c1cccnc1)c1cccc(Cl)c1.O=C(O)C(=O)O` [Example 1, (Z)-3-(3-chlorophenyl)-N,N-dimethyl-3-(3-pyridyl)allylamine oxalate], the EC50 in experiment [3] turned out to be 2700 nM; in experiment [4], 10000 nM. The ED50 in experiment [1] (setting [5]) and in experiment [2] (setting [5]) was greater than 110 µmol/kg each time. The “Percentage inhibition of ^14 C-5-HT uptake at the highest dose examined” value in experiment [1] (i.p.) turned out to be 12%. In experiment [2] (i.p.), the “Percentage inhibition of ^3 H-NA uptake at the highest dose examined” value is 41%.
Take `CNC/C=C(/c1ccc(Br)cc1)c1cccnc1` [4-Br H Z, reference compound]: the ED50 was 15 µmol/kg in experiment [1] (setting [5]) and greater than 101 µmol/kg in experiment [2] (setting [5]). Also, in experiment [2] (i.p.), the “Percentage inhibition of ^3 H-NA uptake at the highest dose examined” value is 38%.
Take `CNC/C=C(\c1cccnc1)c1cccc(Br)c1` [Example 8, (Z)-3-(3-Bromophenyl)-N-methyl-3-(3-pyridyl)allylamine oxalate]: the EC50 is 1400 nM in experiment [3] and 900 nM in experiment [4]. In addition, the figures for the ED50 in experiment [1] (setting [5]) and in experiment [2] (setting [5]) were greater than 102 µmol/kg and 58 µmol/kg, respectively.
Consider `CN(C)CC=C(c1cccnc1)c1ccccc1Br` [2-Br CH3 E/Z 1:1, 3-(2-bromophenyl)-N,N-dimethyl-3-(3-pyridyl)-allylamine], for which the EC50 in experiment [3] turned out to be 3500 nM; in experiment [4] it was 2200 nM. For the same molecule, the ED50 in experiment [1] (setting [5]) was greater than 126 µmol/kg; in experiment [2] (setting [5]), 79 µmol/kg.
On to `CN(C)CCCN1c2ccccc2CCc2ccccc21` [Imipramine, reference compound], for which the values for the ED50 in experiment [1] and in experiment [2] were 125 µmol/kg and 63 µmol/kg, respectively.
In the case of `CN(C)C/C=C(\c1cccnc1)c1ccc(Cl)cc1Cl` [Example 9, (E)-3-(2,4-Dichlorophenyl)-N,N-dimethyl-3-(3-pyridyl)allylamine oxalate], the ED50 was 43 µmol/kg in experiment [1] (setting [5]) and greater than 101 µmol/kg in experiment [2] (setting [5]).
The corresponding values for `CN(C)CC=C(c1ccc(F)cc1)c1cccnc1` [Example 4, 3-(4-Fluorophenyl)-N,N-dimethyl-3-(3-pyridyl)allylamine oxalate] are 115 µmol/kg and 72 µmol/kg.
With `CN(C)C/C=C(/c1ccc(I)cc1)c1cccnc1.O=C(O)C(=O)O` [Example 11, (Z)-3-(4-iodophenyl)-N,N-dimethyl-3-(3-pyridyl)allylamine oxalate], the “selectivity of the uptake inhibition (5-HT versus NA), in words” value in experiment [3] (5-HT versus NA uptake, brain slices) is “completely selective inhibitor of the 5-HT uptake”. Further, the figures for the EC50 in experiment [3] and in experiment [4] were 1300 nM and greater than 22000 nM, respectively. Moreover, in experiment [4] (at the highest concentration examined (the > value, μM)), the “Percentage inhibition of ^3 H-NA uptake at the highest concentration examined” value turned out to be 33%. The ED50 in experiment [1] (setting [5]) was 46 µmol/kg; in experiment [2] (setting [5]), greater than 88 µmol/kg. In addition, the “Percentage inhibition of ^3 H-NA uptake at the highest dose examined” value in experiment [2] (i.p.) is given as 0%.
Turning to `CNCC=C(c1ccc(F)cc1)c1cccnc1` [Example 5, 3-(4-Fluorophenyl)-N-methyl-3-(3-pyridyl)allylamine oxalate], the results for the ED50 in experiment [1] (setting [5]) and in experiment [2] (setting [5]) were 72 µmol/kg and 29 µmol/kg, respectively.
In the case of `CN(C)C/C=C(\c1cccnc1)c1ccccc1Br` [Example 6, (E)-3-(2-Bromophenyl)-N,N-dimethyl-3-(3-pyridyl)allylamine oxalate], the figures for the EC50 in experiment [3] and in experiment [4] were 4200 nM and 2200 nM, respectively. The ED50 in experiment [1] (setting [5]) is greater than 98 µmol/kg; in experiment [2] (setting [5]), 37 µmol/kg.

The values are drawn from patent publication US4418065A, “Halophenyl-pyridyl-allylamine derivatives and use” (priority 1979, dated 1983).
